Measured values: the supplement of paper PMC10307832

How the values were obtained:
Assay in all cases: relative viability (nuclei count vs DMSO), 5 days (fraction); higher = more cells survive
[1] = test system: NCI-H838
Outline: (§1)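 For relative viability, nuclei counts in treated wells were divided by those in vehicle wells. Lung cancer cell lines had been pin-tool dosed in 1536-well plates the day after seeding and cultured for 5 days, then fixed and stained in one step (final 0.05% Triton X-100, 1% formaldehyde, 1 ug/ml Hoechst) and imaged at 4×. Doses were one drug alone or a fixed anchor-drug dose plus five library-drug doses (not always all listed) in √10 steps, and values are duplicate-plate medians.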

[2] = test system: HCC-78
Outline: as §1

[3] = test system: NCI-H650
Outline: as §1

[4] = test system: EPLC-272H
Outline: as §1

[5] = test system: NCI-H1993
Outline: as §1

[6] = test system: COR-L23
Outline: as §1

[7] = test system: NCI-H2085
Outline: as §1

[8] = test system: SW 1573
Outline: as §1

[9] = test system: NCI-H358
Outline: as §1

[10] = test system: PC-14
Outline: as §1

[11] = test system: NCI-H2009
Outline: as §1

[12] = test system: NCI-H460
Outline: as §1

[13] = test system: UMC-11
Outline: as §1

[14] = test system: LU99A
Outline: as §1

[15] = test system: NCI-H1915
Outline: as §1

[16] = test system: LC-2-ad
Outline: as §1

[17] = test system: NCI-H2347
Outline: as §1

[18] = test system: ABC-1
Outline: as §1

[19] = test system: NCI-H2126
Outline: as §1

[20] = test system: HCC-15
Outline: as §1

[21] = test system: NCI-H1651
Outline: as §1

[22] = test system: HARA
Outline: as §1

With `COc1cc(N2CCC(C(N)=O)CC2)ccc1Nc1nc(N)c(Cl)c(Nc2ccccc2S(=O)(=O)C(C)C)n1` [HG-5-88-01] + CS(=O)(=O)CCNCc1ccc(-c2ccc3ncnc(Nc4ccc(OCc5cccc(F)c5)c(Cl)c4)c3c2)o1 [Lapatinib] (partner 2 µM) the relative viability ([1]; first compound 0.04 µM) was 0.906, the relative viability ([1]; first compound 0.1265 µM) was 0.952 and the relative viability ([1]; first compound 0.4 µM) was 0.797. It also gave a relative viability ([1]; first compound 1.265 µM) of 0.708, a relative viability ([1]; first compound 4 µM) of 0.498 and a relative viability ([2]; first compound 0.04 µM) of 0.737. The relative viability ([2]; first compound 0.1265 µM) was 0.465, the relative viability ([2]; first compound 0.4 µM) was 0.223 and the relative viability ([2]; first compound 1.265 µM) was 0.264. For the same compound, the relative viability ([2]; first compound 4 µM) was 0.226, the relative viability ([3]; first compound 0.04 µM) was 0.962 and the relative viability ([3]; first compound 0.1265 µM) was 1.01. It also gave a relative viability ([3]; first compound 0.4 µM) of 1.14, a relative viability ([3]; first compound 1.265 µM) of 0.943 and a relative viability ([3]; first compound 4 µM) of 0.475. It also gave a relative viability ([4]; first compound 0.04 µM) of 0.871, a relative viability ([4]; first compound 0.1265 µM) of 0.952 and a relative viability ([4]; first compound 0.4 µM) of 0.994. For the same compound, the relative viability ([4]; first compound 1.265 µM) was 0.949, the relative viability ([4]; first compound 4 µM) was 0.0809 and the relative viability ([5]; first compound 0.04 µM) was 0.713. The relative viability ([5]; first compound 0.1265 µM) was 0.853, the relative viability ([5]; first compound 0.4 µM) was 0.843 and the relative viability ([5]; first compound 1.265 µM) was 0.79. It also gave a relative viability ([5]; first compound 4 µM) of 0.788, a relative viability ([6]; first compound 0.04 µM) of 0.998 and a relative viability ([6]; first compound 0.1265 µM) of 1.07. The relative viability ([6]; first compound 0.4 µM) was 0.957, the relative viability ([6]; first compound 1.265 µM) was 0.921 and the relative viability ([6]; first compound 4 µM) was 0.629. For the same compound, the relative viability ([7]; first compound 0.04 µM) was 0.718, the relative viability ([7]; first compound 0.1265 µM) was 0.86 and the relative viability ([7]; first compound 0.4 µM) was 0.761. It also gave a relative viability ([7]; first compound 1.265 µM) of 0.65, a relative viability ([7]; first compound 4 µM) of 0.557 and a relative viability ([8]; first compound 0.04 µM) of 1.12. For the same compound, the relative viability ([8]; first compound 0.1265 µM) was 0.86, the relative viability ([8]; first compound 0.4 µM) was 0.989 and the relative viability ([8]; first compound 1.265 µM) was 1.06. It also gave a relative viability ([8]; first compound 4 µM) of 1.04, a relative viability ([9]; first compound 0.04 µM) of 0.451 and a relative viability ([9]; first compound 0.1265 µM) of 0.378. The relative viability ([9]; first compound 0.4 µM) was 0.307, the relative viability ([9]; first compound 1.265 µM) was 0.256 and the relative viability ([9]; first compound 4 µM) was 0.304. The relative viability ([10]; first compound 0.04 µM) was 0.358, the relative viability ([10]; first compound 0.1265 µM) was 0.307 and the relative viability ([10]; first compound 0.4 µM) was 0.242. The relative viability ([10]; first compound 1.265 µM) was 0.267, the relative viability ([10]; first compound 4 µM) was 0.25 and the relative viability ([11]; first compound 0.04 µM) was 0.943. The relative viability ([11]; first compound 0.1265 µM) was 1.01, the relative viability ([11]; first compound 0.4 µM) was 0.843 and the relative viability ([11]; first compound 1.265 µM) was 0.939. For the same compound, the relative viability ([11]; first compound 4 µM) was 0.433, the relative viability ([12]; first compound 0.04 µM) was 0.963 and the relative viability ([12]; first compound 0.1265 µM) was 0.981. It also gave a relative viability ([12]; first compound 0.4 µM) of 0.871, a relative viability ([12]; first compound 1.265 µM) of 0.996 and a relative viability ([12]; first compound 4 µM) of 0.302. The relative viability ([13]; first compound 0.04 µM) was 0.84, the relative viability ([13]; first compound 0.1265 µM) was 1.13 and the relative viability ([13]; first compound 0.4 µM) was 0.837. For the same compound, the relative viability ([13]; first compound 1.265 µM) was 0.927, the relative viability ([13]; first compound 4 µM) was 0.632 and the relative viability ([14]; first compound 0.04 µM) was 1.03. The relative viability ([14]; first compound 0.1265 µM) was 1.02, the relative viability ([14]; first compound 0.4 µM) was 1 and the relative viability ([14]; first compound 1.265 µM) was 0.988. It also gave a relative viability ([14]; first compound 4 µM) of 0.721, a relative viability ([15]; first compound 0.04 µM) of 0.958 and a relative viability ([15]; first compound 0.1265 µM) of 1. The relative viability ([15]; first compound 0.4 µM) was 0.977, the relative viability ([15]; first compound 1.265 µM) was 1 and the relative viability ([15]; first compound 4 µM) was 0.698. It also gave a relative viability ([16]; first compound 0.04 µM) of 0.993, a relative viability ([16]; first compound 0.1265 µM) of 1.02 and a relative viability ([16]; first compound 0.4 µM) of 0.876. For the same compound, the relative viability ([16]; first compound 1.265 µM) was 0.908, the relative viability ([16]; first compound 4 µM) was 0.629 and the relative viability ([17]; first compound 0.04 µM) was 1.02. For the same compound, the relative viability ([17]; first compound 0.1265 µM) was 0.947, the relative viability ([17]; first compound 0.4 µM) was 0.896 and the relative viability ([17]; first compound 1.265 µM) was 1.01. The relative viability ([17]; first compound 4 µM) was 0.887, the relative viability ([18]; first compound 0.04 µM) was 1.2 and the relative viability ([18]; first compound 0.1265 µM) was 1.12. For the same compound, the relative viability ([18]; first compound 0.4 µM) was 0.996, the relative viability ([18]; first compound 1.265 µM) was 0.624 and the relative viability ([18]; first compound 4 µM) was 1.32. The relative viability ([19]; first compound 0.04 µM) was 0.649, the relative viability ([19]; first compound 0.1265 µM) was 0.712 and the relative viability ([19]; first compound 0.4 µM) was 0.706. The relative viability ([19]; first compound 1.265 µM) was 0.726, the relative viability ([19]; first compound 4 µM) was 0.45 and the relative viability ([20]; first compound 0.04 µM) was 0.878. For the same compound, the relative viability ([20]; first compound 0.1265 µM) was 0.83, the relative viability ([20]; first compound 0.4 µM) was 0.792 and the relative viability ([20]; first compound 1.265 µM) was 0.894. The relative viability ([20]; first compound 4 µM) was 0.449, the relative viability ([21]; first compound 0.04 µM) was 0.955 and the relative viability ([21]; first compound 0.1265 µM) was 1. It also gave a relative viability ([21]; first compound 0.4 µM) of 0.796, a relative viability ([21]; first compound 1.265 µM) of 0.863 and a relative viability ([21]; first compound 4 µM) of 0.882. It also gave a relative viability ([22]; first compound 0.04 µM) of 0.754, a relative viability ([22]; first compound 0.1265 µM) of 0.528 and a relative viability ([22]; first compound 0.4 µM) of 0.671. For the same compound, the relative viability ([22]; first compound 1.265 µM) was 0.71 and the relative viability ([22]; first compound 4 µM) was 0.31.
